We go through one molecule from US9884063B2, “Amido-substituted azole compounds” (Bayer Pharma Aktiengesellschaft, priority 2014, dated 2018).

The pIC50 is the negative decadic logarithm of the IC50, by convention in mol/L. A low value points to a high IC50.

The experiment concerns the target T1, TNKS1 (Homo sapiens, UniProt O95271).
T1 sequence (O95271 1-1327): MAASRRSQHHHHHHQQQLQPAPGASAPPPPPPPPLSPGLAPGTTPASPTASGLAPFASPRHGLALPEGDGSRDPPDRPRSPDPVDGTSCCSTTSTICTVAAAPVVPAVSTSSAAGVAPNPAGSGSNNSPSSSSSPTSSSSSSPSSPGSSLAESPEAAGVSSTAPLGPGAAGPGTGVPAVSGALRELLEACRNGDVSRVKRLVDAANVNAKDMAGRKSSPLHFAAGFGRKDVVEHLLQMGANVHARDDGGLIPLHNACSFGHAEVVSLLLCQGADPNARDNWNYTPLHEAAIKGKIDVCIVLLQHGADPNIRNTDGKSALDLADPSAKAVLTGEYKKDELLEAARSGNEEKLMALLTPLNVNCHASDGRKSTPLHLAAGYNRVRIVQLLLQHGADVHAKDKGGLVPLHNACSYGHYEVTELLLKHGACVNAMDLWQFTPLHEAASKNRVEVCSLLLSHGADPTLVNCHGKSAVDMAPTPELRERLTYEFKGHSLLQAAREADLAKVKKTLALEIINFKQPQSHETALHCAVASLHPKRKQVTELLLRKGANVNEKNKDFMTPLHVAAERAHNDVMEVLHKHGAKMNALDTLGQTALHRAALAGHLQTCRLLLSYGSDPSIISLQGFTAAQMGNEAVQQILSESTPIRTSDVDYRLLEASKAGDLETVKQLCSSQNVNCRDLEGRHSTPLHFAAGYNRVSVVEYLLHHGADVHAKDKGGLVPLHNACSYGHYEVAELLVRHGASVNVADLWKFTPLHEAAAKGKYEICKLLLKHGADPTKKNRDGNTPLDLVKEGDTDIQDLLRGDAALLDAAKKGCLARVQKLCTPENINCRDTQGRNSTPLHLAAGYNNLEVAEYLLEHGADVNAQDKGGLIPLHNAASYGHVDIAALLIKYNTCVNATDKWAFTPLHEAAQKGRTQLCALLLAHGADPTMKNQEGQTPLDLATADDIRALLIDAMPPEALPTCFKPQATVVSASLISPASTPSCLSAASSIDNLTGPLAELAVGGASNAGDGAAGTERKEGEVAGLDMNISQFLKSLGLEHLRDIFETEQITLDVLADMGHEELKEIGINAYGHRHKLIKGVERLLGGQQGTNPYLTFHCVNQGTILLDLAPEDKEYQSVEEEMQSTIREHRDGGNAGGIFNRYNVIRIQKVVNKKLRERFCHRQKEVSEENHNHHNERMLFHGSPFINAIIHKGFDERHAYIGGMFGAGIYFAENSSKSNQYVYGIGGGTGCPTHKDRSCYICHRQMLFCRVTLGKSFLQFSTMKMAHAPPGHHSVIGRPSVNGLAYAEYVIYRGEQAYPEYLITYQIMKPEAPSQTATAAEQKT
Put plainly: Modified TNKS1 Assay 3 (BPS kit #80573, biotin-NAD+, 96 well). To be noted: human TNKS1, BPS kit #80573, 96 well. The experiment is classed as biochemical. In a few lines: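 Chemiluminescent assay of TNKS1-catalysed ribosylation of a protein substrate with biotin-labelled NAD+, detected via streptavidin-HRP; run per kit protocol. Inhibition lowers the signal, and IC50 is the compound concentration halving the normalised readout.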

pIC50: −log10 of the molar value.

The molecule `O=C(Nc1ccc(NC(=O)c2[nH]cnc2C(=O)NCCN2CCCCC2)cn1)c1ccc(F)cc1Cl` [Example 110, N^5-{6-[(2-chloro-4-fluorobenzoyl)amino]pyridin-3-yl}-N^4-[2-(piperidin-1-yl)ethyl]-1H-imidazole-4,5-dicarboxamide] showed a pIC50 of 7.40.
